Data: paper PMC4976923, “Potent Allosteric Dengue Virus NS5 Polymerase Inhibitors: Mechanism of Action and Resistance Profiling” (PLoS Pathogens, 2016)
Where two headings read alike, the source gives them in different places.

How the values were obtained:
[1] = tested on: DENV2-NGC Ren-LUC Replicon in HuH-7; assay: Stable HuH-7 DENV2-NGC renilla luciferase replicon assay; assay type: cell-based; conditions: read-out: HuH-7 DENV Replicon, DENV2, EC50
[2] = tested on: DENV2-NGC Ren-LUC Replicon in A549; assay: Stable A549 DENV2-NGC renilla luciferase replicon assay; assay type: cell-based; conditions: Dengue virus, 48 hr
Method: (§1) A549, BHK-21 and Huh7 cells bearing stable DENV2 sub-genomic replicon or transiently electroporated DENV2-NGC replicon or infectious virus cDNAs were seeded into 384-well microplate (3,000 cells per well). After over-night incubation at 37°C with 5% CO2, the cells were treated with 2-fold serially diluted compounds, starting from 20 or 50 μM. At 48 hr of post-incubation, renilla luciferase activities were measured with the ViviRen live-cell substrate (Promega, USA) according to the manufacturer’s protocol. CellTiter-Glo reagent (Promega, USA) was then added to determine cytotoxic effects of compounds. For the HCV replicon assay, Huh-7.5 cells harboring the HCV replicon were seeded into a 96-well microplate (20,000 cells per well). At 48 hr after compound treatment, cells were assayed for firefly luciferase activity by using a Bright-Glo luciferase assay (Promega, USA). NITD-008, a nucleoside inhibitor of DENV and HCV was added as a control.
1 containing 2 % FBS, 1mM L-glutamine and 1 % penicillin-streptom ycin and incubated over-
At 24 h post-seeding, cells were inf ected with DENV1-4 at
3 multiplicity of infection [MOI] of 0.3-1 (DENV1, strain MY97- 10245, MOI = 0.5; DENV2,
5 MY01-22713; MOI = 0.5) and treated immediatel y with 10- point, 3-fold serially diluted
6 compounds (at final 0.5% DMSO concent ration; 4). At 48 h post-infection , cells wer e fix ed
8 DENV envelope protein ) and DRAQ5 (for nucl ear DNA) . Quantifications of DENV
9 envelope protein were determined using the Opera high content imaging s ystem and anal ysis
10 software (Perkin Elmer, USA). Calculation of EC50 values were perfo rmed using Helios
11 software p ackage (Nov ar tis, Basel).
13 Compound testing in DENV2 and HCV sub -genomic replicon assays. A549, BHK -21 and
14 Huh7 DENV2 sub- geno mic replicon cells were seed ed at a d ensit y o f 3,000 cells per w ell
15 in a 384-well microplate. After incubation at 37 °C with 5 % CO2 overnight, the cells were […]
17 µM concentrations. At 48 hr of post-incubation, r enilla luciferas e activities were measured […]

in vitro [3] = assay type: cell-based
Method: as §1

DENV2 replicon cells = DENV2 replicon cells from HuH-7, BHK-21 and A549 backgrounds, range; assay type: cell-based; conditions: Dengue virus, range across cell backgrounds
DENV2 FL NS5 WT = target: T1, DENV2 FL NS5 WT (Dengue virus type 2, UniProt P14340); assay type: binding; conditions: 50 µM compound; for Protein melting temperature, Tm, DENV2 FL NS5 WT: DMSO 35.5
T1 construct: compared against activities of WT DENV2 or DENV4 FL NS5 proteins; made in house

DENV2 FL NS5 E802D = target: T2, DENV2 FL NS5 E802D (Dengue virus type 2, UniProt P14340, E3293D); assay type: binding; conditions: 50 µM compound; for Protein melting temperature, Tm, DENV2 FL NS5 E802D: DMSO 36
T2 construct: Recombinant DENV2 (A, C) and DENV4 (B, D) FL NS5 proteins bearing single or double amino acid changes; made in house

DENV2 FL NS5 L511V/E802D = target: T3, DENV2 FL NS5 L511V/E802D (Dengue virus type 2, UniProt P14340, E3293D/L3003V); assay type: binding; conditions: 50 µM compound; for Protein melting temperature, Tm, DENV2 FL NS5 L511V/E802D: DMSO 35
T3 construct: Recombinant DENV2 (A, C) and DENV4 (B, D) FL NS5 proteins bearing single or double amino acid changes; made in house

DENV4 FL NS5 L512V/Q802N = target: T4, DENV4 FL NS5 L512V/Q802N (Dengue virus type 4, UniProt P09866, L2999V/Q3290N); assay type: binding; conditions: 50 µM compound; for Protein melting temperature, Tm, DENV4 FL NS5 L512V/Q802N: DMSO 36
T4 construct: made in house
T4 sequence (P09866 2488-3387 L2999V/Q3290N): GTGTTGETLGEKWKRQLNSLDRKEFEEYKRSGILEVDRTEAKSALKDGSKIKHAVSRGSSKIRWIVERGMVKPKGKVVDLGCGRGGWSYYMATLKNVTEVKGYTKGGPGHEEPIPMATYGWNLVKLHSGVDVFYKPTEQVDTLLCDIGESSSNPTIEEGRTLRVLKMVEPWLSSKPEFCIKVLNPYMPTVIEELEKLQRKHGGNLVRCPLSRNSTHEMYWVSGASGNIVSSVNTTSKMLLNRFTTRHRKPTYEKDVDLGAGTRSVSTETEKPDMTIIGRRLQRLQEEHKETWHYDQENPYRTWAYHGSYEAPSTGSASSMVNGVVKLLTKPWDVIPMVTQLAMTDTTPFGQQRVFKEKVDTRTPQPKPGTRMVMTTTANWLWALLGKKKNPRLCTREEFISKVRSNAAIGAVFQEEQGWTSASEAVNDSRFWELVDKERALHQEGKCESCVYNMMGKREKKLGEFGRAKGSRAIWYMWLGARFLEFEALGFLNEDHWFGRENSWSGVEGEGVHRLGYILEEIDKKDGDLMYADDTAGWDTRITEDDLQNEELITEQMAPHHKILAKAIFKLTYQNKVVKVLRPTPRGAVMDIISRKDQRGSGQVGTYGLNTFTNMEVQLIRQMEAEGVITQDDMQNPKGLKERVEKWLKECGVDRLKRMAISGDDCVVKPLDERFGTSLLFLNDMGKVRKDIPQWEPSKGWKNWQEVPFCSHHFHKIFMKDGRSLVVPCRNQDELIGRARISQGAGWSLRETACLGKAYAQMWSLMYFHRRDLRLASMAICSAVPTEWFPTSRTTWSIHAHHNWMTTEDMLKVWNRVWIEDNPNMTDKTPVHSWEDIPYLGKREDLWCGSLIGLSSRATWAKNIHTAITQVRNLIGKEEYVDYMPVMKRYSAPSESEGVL

in vitro [4] = assay type: cell-based; conditions: human; 4–5 days
DENV2-NGC virus L512V = assay type: cell-based; conditions: A549, MOI = 0.2; 48 hr; plaque assay
[5] = Dengue virus, DENV2, Huh-7, 48 h
[6] = human, HuH-7 (DENV2 replicon cells), 48 hr, ATP levels
[7] = human, 2 days, read-out: CC50, A549
[8] = hamster, 2 days, read-out: CC50, BHK-21

Structure (SMILES)	EC50 [1, 5] [nM]	EC50 [2] [nM]	CC50 (in vitro [3]; [6]) [µM]	CC50 (in vitro [3]; [7]) [µM]	EC50 (DENV2 replicon cells) [µM]	Tm change compared to DMSO control, DENV2 FL NS5 WT (DENV2 FL NS5 WT) [°C]	Protein melting temperature, Tm, DENV2 FL NS5 WT (DENV2 FL NS5 WT) [°C]	Tm change compared to DMSO control, DENV2 FL NS5 E802D (DENV2 FL NS5 E802D) [°C]	Protein melting temperature, Tm, DENV2 FL NS5 E802D (DENV2 FL NS5 E802D) [°C]	Tm change compared to DMSO control, DENV2 FL NS5 L511V/E802D (DENV2 FL NS5 L511V/E802D) [°C]	Protein melting temperature, Tm, DENV2 FL NS5 L511V/E802D (DENV2 FL NS5 L511V/E802D) [°C]	Tm change compared to DMSO control, DENV4 FL NS5 L512V/Q802N (DENV4 FL NS5 L512V/Q802N) [°C]	Protein melting temperature, Tm, DENV4 FL NS5 L512V/Q802N (DENV4 FL NS5 L512V/Q802N) [°C]	CC50 (in vitro [3]; [8]) [µM]	CC50 (in vitro [4]) [µM]	EC50 (DENV2-NGC virus L512V) [µM]	EC50 ([1]; 48 hr) [nM]
COc1cccc(S(=O)(=O)NC(=O)c2cc(-c3ccc(C#CCO)s3)c(OC)cc2C)c1 [Compound 26i]	12100	15400	> 50	> 50	12 to 15	–	–	–	–	–	–	–	–	–	–	–	–
COc1cccc(S(=O)(=O)NC(=O)c2cc(-c3ccc(C#CCO)s3)c(OC)cc2OC)c1 [Compound 27]	3900 ± 620	2300	> 100	> 50	1 to 5	1.5	37	0	36	0	35	-1	35	> 50	> 50	2.2	–
COc1cc(OC)c(-c2ccc(C#CCO)s2)cc1C(=O)NS(=O)(=O)c1cccc2cccnc12 [Compound 29]	~2000	2800	> 50	> 50	1 to 5	4.5	40	2.0	38	0.5	35.5	-0.5	35.5	> 50	> 50	6	1900 ± 200
